Assay [1] deals with AECO063 (ATCC25922 bearing an acrAB mutation). Briefly: microbe, parasite or virus in culture. The assay is classed as cell-based, E. coli. The settings on record: Escherichia coli, ATCC25922, read-out: MIC AECO063. The protocol: (§1) Bacterial isolates were cultivated from −70° C. frozen stocks by overnight passages at 35° C. in ambient air on Mueller-Hinton agar (Beckton Dickinson, Franklin Lakes, N.J.). Clinical isolates tested were obtained from various geographically diverse hospitals in the US and abroad (Focus Diagnostics, Herndon, Va. and JMI, North Liberty, Iowa). Quality control strains were from the American Type Culture Collection (ATCC; Rockville, Md.). Additional primary panel strains were generated using standard molecular biology techniques.
(§2) Minimum Inhibitory Concentrations (MICs) were determined by the broth microdilution method in accordance with the Clinical and Laboratory Standards Institute (CLSI) guidelines. In brief, organism suspensions were adjusted to a 0.5 McFarland standard to yield a final inoculum between 3×10^5 and 7×10^5 colony-forming units (CFU)/mL. Drug dilutions and inocula were made in sterile, cation adjusted Mueller-Hinton Broth (Beckton Dickinson). An inoculum volume of 100 μL was added to wells containing 100 μL of broth with 2-fold serial dilutions of drug. All inoculated microdilution trays were incubated in ambient air at 35° C. for 18-24 hours. […] Performance of the assay was monitored by the use of laboratory quality-control strains and levofloxacin, a compound with a defined MIC spectrum, in accordance with CLSI guidelines.
(§3) *AECO001 is ATCC25922, AECO063 is ATCC25922 bearing an acrAB mutation, APAE001 is ATCC27853, APAE006 is a strain of P. aeruginosa in which all efflux pumps are inactivated, APAE006+PMBN indicates MICs with the indicated strain in the presence of 8 micrograms per milliliter of polymyxin B nonapeptide, AABA1060 is a clinical isolate of Acinetobacter baumannii, ASAU001 is a laboratory strain of S. aureus (ATCC29213).

Assay [2] relates to APAE006 (strain of P. aeruginosa in which all efflux pumps are inactivated). Briefly: microbe, parasite or virus in culture. The assay is classed as cell-based. The conditions noted are these: Pseudomonas aeruginosa, read-out: MIC APAE006, APAE006, all efflux pumps inactivated. The protocol: as §1, §2, §3
Assay [3] has as its system AABA1060 (clinical isolate of Acinetobacter baumannii). In words: MIC broth microdilution, AABA1060. The assay is classed as cell-based. The conditions noted are these: Acinetobacter baumannii, read-out: MIC AABA1060. The protocol:
as §1, §2, §3
On the technique in general: Broth dilution looks for growth in wells or tubes with falling amounts of substance.

For assay [4], the system named is APAE001 (ATCC27853). Briefly: MIC broth microdilution, APAE001. The settings on record: Pseudomonas aeruginosa, ATCC27853, read-out: MIC APAE001, APAE001 (ATCC27853). The assay is classed as cell-based, P. aeruginosa. On the procedure: as §1, §2, §3
Assay [5] concerns APAE006 in the presence of 8 micrograms per milliliter of polymyxin B nonapeptide. The assay is classed as cell-based, P. aeruginosa. The conditions noted are these: APAE006 with 8 micrograms per milliliter polymyxin B nonapeptide. On the procedure: as §1, §2, §3
Assay [6] concerns ASAU001 (laboratory strain of S. aureus, ATCC29213). In words: MIC broth microdilution, ASAU001. The assay is classed as cell-based. The settings on record: Staphylococcus aureus, ATCC29213, read-out: MIC ASAU001. On the procedure: as §1, §2, §3
For assay [7], the system named is AECO001 (ATCC25922). In words: MIC broth microdilution, AECO001. The conditions noted are these: for MIC: Escherichia coli. The assay is classed as cell-based, E. coli. The protocol:
as §1, §2, §3

The mark [8] stands for this setting: ATCC25922, read-out: MIC AECO001.
Setting [9] is: ATCC25922, read-out: MIC AECO001 HSA AGP.

Structures are written as SMILES. Converted amounts (≈) assume the structure as drawn. Where two headings read alike, the source gives them in different places.

Nine compounds from patent US9617256B2 (priority 2007, dated 2017) can be followed below.

Turning to `CC(C)(N)[C@H](NC(=O)c1ccc(C#CC#Cc2cncs2)cc1)C(=O)NO` [Example 88-16], the MIC is below 2 µg/mL in assay [1]; below 2 µg/mL in assay [2]; below 2 µg/mL in assay [3]; below 2 µg/mL in assay [4]; 16 to 64 µg/mL (≈ 41.8 to 167 µM) in assay [6]; below 2 µg/mL in assay [7] (setting [8]). In addition, in assay [7] (setting [9]), the MIC fell in the range of 2 to 16 µg/mL (≈ 5.23 to 41.8 µM). For the same compound, in assay [5], the “MIC APAE006 + PMBN” value was “A (MIC's of 2.0 μg/mL or less = A)”.

As to `C[C@@H](N)[C@H](NC(=O)c1ccc(C#CC#Cc2cnc(N)s2)cc1)C(=O)NO` [Example 88-17], the MIC is below 2 µg/mL in assay [1]; below 2 µg/mL in assay [2]; 2 to 16 µg/mL (≈ 5.22 to 41.7 µM) in assay [3]; below 2 µg/mL in assay [4]; 16 to 64 µg/mL (≈ 41.7 to 167 µM) in assay [6]; below 2 µg/mL in assay [7] (setting [8]). Moreover, the MIC in assay [7] (setting [9]) is 16 to 64 µg/mL (≈ 41.7 to 167 µM). In assay [5], the “MIC APAE006 + PMBN” value is listed as “A (MIC's of 2.0 μg/mL or less = A)”.

With `C[C@@H](N)[C@H](NC(=O)c1ccc(C#CC#Cc2cnn(C)c2)cc1)C(=O)NO` [Example 89-1, N-((2S,3R)-3-amino-1-(hydroxyamino)-1-oxobutan-2-yl)-4-((1-methyl-1H-pyrazol-4-yl)buta-1,3-diynyl)benzamide], the MIC in assay [1] was below 2 µg/mL; in assay [2] it was below 2 µg/mL; in assay [3], 2 to 16 µg/mL (≈ 5.47 to 43.8 µM); in assay [4] it was below 2 µg/mL; in assay [6], 16 to 64 µg/mL (≈ 43.8 to 175 µM); in assay [7] (setting [8]), below 2 µg/mL. Moreover, in assay [7] (setting [9]), the MIC was 2 to 16 µg/mL (≈ 5.47 to 43.8 µM). Also, in assay [5], the “MIC APAE006 + PMBN” value is listed as “A (MIC's of 2.0 μg/mL or less = A)”.

On to `Cn1cc(C#CC#Cc2ccc(C(=O)N[C@H](C(=O)NO)C(C)(C)N)cc2)cn1` [Example 89-2], for which the MIC in assay [1] was below 2 µg/mL; in assay [2], below 2 µg/mL; in assay [3], below 2 µg/mL; in assay [4], below 2 µg/mL; in assay [6], 16 to 64 µg/mL (≈ 42.2 to 169 µM); in assay [7] (setting [8]) it was below 2 µg/mL. Moreover, the MIC in assay [7] (setting [9]) was in the range of 2 to 16 µg/mL (≈ 5.27 to 42.2 µM). In addition, the “MIC APAE006 + PMBN” value in assay [5] was “A (MIC's of 2.0 μg/mL or less = A)”. Further, the “Ratio of MICs on AECO001 [Cpd (A = —CHCH3NH2)/Cpd (A = —C(CH3)2NH2)]” value in assay [7] (MIC of paired compound with A = —CHCH3NH2 divided by MIC of compound with A = —C(CH3)2NH2, n=2 data, pairs identical except for the A moiety) came to 1.6.

With `Cn1cc(C#CC#Cc2ccc(C(=O)N[C@H](C(=O)NO)C(C)(C)O)cc2)cn1` [Example 89-3], the MIC was below 2 µg/mL in assay [1]; below 2 µg/mL in assay [2]; 2 to 16 µg/mL (≈ 5.26 to 42.1 µM) in assay [3]; below 2 µg/mL in assay [4]; 16 to 64 µg/mL (≈ 42.1 to 168 µM) in assay [6]; below 2 µg/mL in assay [7] (setting [8]). The MIC in assay [7] (setting [9]) is below 2 µg/mL. Besides, the “MIC APAE006 + PMBN” value in assay [5] is “A (MIC's of 2.0 μg/mL or less = A)”.

Regarding `C[C@@H](N)[C@H](NC(=O)c1ccc(C#CC#Cc2cncnc2)cc1)C(=O)NO` [Example 89-4], the MIC in assay [1] was 2 to 16 µg/mL (≈ 5.5 to 44 µM); in assay [2], below 2 µg/mL; in assay [3], 16 to 64 µg/mL (≈ 44 to 176 µM); in assay [4], 2 to 16 µg/mL (≈ 5.5 to 44 µM); in assay [6] it was 16 to 64 µg/mL (≈ 44 to 176 µM); in assay [7] (setting [8]), 16 to 64 µg/mL (≈ 44 to 176 µM). In addition, the MIC in assay [7] (setting [9]) fell in the range of 16 to 64 µg/mL (≈ 44 to 176 µM). Besides, in assay [5], the “MIC APAE006 + PMBN” value is on record as “A (MIC's of 2.0 μg/mL or less = A)”.

For the compound `Cn1cnc(C#CC#Cc2ccc(C(=O)N[C@H](C(=O)NO)C(C)(C)N)cc2)c1` [Example 89-5], the MIC in assay [1] is below 2 µg/mL; in assay [2] it was below 2 µg/mL; in assay [3] it was 2 to 16 µg/mL (≈ 5.27 to 42.2 µM); in assay [4], below 2 µg/mL; in assay [6] it was 16 to 64 µg/mL (≈ 42.2 to 169 µM); in assay [7] (setting [8]), 2 to 16 µg/mL (≈ 5.27 to 42.2 µM). In assay [7] (setting [9]), the MIC fell in the range of 2 to 16 µg/mL (≈ 5.27 to 42.2 µM). The “MIC APAE006 + PMBN” value in assay [5] is listed as “A (MIC's of 2.0 μg/mL or less = A)”.

For the compound `CC(C)(N)[C@H](NC(=O)c1ccc(C#CC#Cc2cncnc2)cc1)C(=O)NO` [Example 89-6], the MIC in assay [1] was below 2 µg/mL; in assay [2] it was below 2 µg/mL; in assay [3], 2 to 16 µg/mL (≈ 5.3 to 42.4 µM); in assay [4], below 2 µg/mL; in assay [6], 16 to 64 µg/mL (≈ 42.4 to 170 µM); in assay [7] (setting [8]), 2 to 16 µg/mL (≈ 5.3 to 42.4 µM). In assay [7] (setting [9]), the MIC fell in the range of 2 to 16 µg/mL (≈ 5.3 to 42.4 µM). Also, in assay [5], the “MIC APAE006 + PMBN” value is listed as “A (MIC's of 2.0 μg/mL or less = A)”.

With `CC(C)(O)[C@H](NC(=O)c1ccc(C#CC#Cc2cncnc2)cc1)C(=O)NO` [Example 89-7], the MIC in assay [1] was below 2 µg/mL; in assay [2], below 2 µg/mL; in assay [3], 16 to 64 µg/mL (≈ 42.3 to 169 µM); in assay [4] it was 2 to 16 µg/mL (≈ 5.29 to 42.3 µM); in assay [6], 16 to 64 µg/mL (≈ 42.3 to 169 µM); in assay [7] (setting [8]), 2 to 16 µg/mL (≈ 5.29 to 42.3 µM). In assay [7] (setting [9]), the MIC lay in the range of 2 to 16 µg/mL (≈ 5.29 to 42.3 µM). Moreover, the “MIC APAE006 + PMBN” value in assay [5] is recorded as “A (MIC's of 2.0 μg/mL or less = A)”.
